Experimental data taken from EP1203585A1, “ANTI-ISCHEMIC AGENT” (Zakrytoe Aktsionernoe Obschestvo " Asgl-Issledovatelskie …, priority 1999, dated 2001).

Assays:
[1] = system: rats with experimental myocardial infarction; assay: experimental myocardial infarction after occlusion of the descending branch of the left coronary artery (LAD), morphometry of ischemia and injury zones; type: in vivo; details: for Area of the injury zone: ischemia zone plus necrosis zone; for Area of the injury zone / Area of the necrosis zone / Ratio: necrosis zone /myocard / Ratio: necrosis/ ischemia / Area of the myocardial zone / Area of the ischemia zone / Ratio: ischemia zone/ myocard: third day, PhP 50 mg/kg intraperitoneally 30 minutes before LAD occlusion; for Area of the injury zone / Area of the necrosis zone / Ratio: necrosis zone /myocard / Ratio: necrosis/ ischemia / Area of the ischemia zone / Ratio: ischemia zone/ myocard: Obzidan 0.5 mg/kg; for Area of the injury zone / Area of the ischemia zone / Ratio: ischemia zone/ myocard: * p<0.05 vs physiological solution; for Area of the myocardial zone: Obzidan 0.5 mg/kg 30 minutes before
Protocol: The study on 4-phenyl-2-pyrrolidinone-1-acetic acid amide anti-ischemic activity has been carried out in model of experimental myocardial infarction caused by the experimental myocardial infarction after the descending branch of the left coronary artery (LAD) occlusion in rats. 4-phenyl-2-pyrrolidinone-1-acetic acid amide was administered intraperitoneally in dose 50 mg/kg 30 minutes before the LAD-occlusion. Anti-ischemic activity of the substance was assessed on the third day after its administration by estimation of the area of necrosis, the area of ischemia and the total myocardial necrosis zone (area of necrosis plus area of ischemia). Ischemia zone and myocardial injury zones were assessed by morphometry methods. Results obtained in the experimental animals' groups exposed to the substance were compared with results obtained in animals, exposed to Obzidan and physiological solutionin (PhS) in dose 0.5 mg/kg, administered 30 minutes before the LAD occlusion.

rats [2] = assay: hemodynamics parameters estimated by direct method; type: in vivo
Protocol: In the other study parameters of hemodynamics in rats exposed to PhP have been estimated (minute cardiac supply, cardiac index, cardiac output, heart rate). Hemodynamics parameters have been estimated by direct method on the fourth day after PhP administration in dose 50 mg/kg.

acute toxicity (LD50) = assay: acute toxicity (LD50); set-up: species or system rats; details: rat, in vivo
Protocol: Acute toxicity (LD50) has been studied in rats, the substance being administered intraperitoneally and perorally. […] LD50 of the substance administered perorally to rats (males and females) - 2464,8 mg/kg, of the pharmaceutical form - 3185,8 mg/kg.

rats [3] = assay: toxicity study, blood and biochemical parameters at 50 and 100 mg/kg; type: in vivo
rabbits = assay: as above; type: in vivo
rats [4] = assay: chronic toxicity; type: in vivo; details: 160 rats, perorally in doses 50, 250 and 500 mg/kg
dogs = assay: chronic toxicity; type: in vivo; details: 28 dogs, perorally in doses 50, 250 and 500 mg/kg
[5] = PhP 50 mg/kg intraperitoneally, compared with physiological solution
[6] = 4th day after PhP administration, dose 50 mg/kg

Compound: CC(C)NCC(O)COc1cccc2ccccc12 (stereo not drawn) [Obzidan, reference compound]
- Area of the injury zone [1]: 203,68 MM^2
- Area of the necrosis zone [1]: 28,48 mm^2
- Ratio: necrosis zone /myocard [1]: 0,059±
- Ratio: necrosis/ ischemia [1]: 0,163±
- Area of the myocardial zone [1]: 481,13 mm^2
- Area of the ischemia zone [1]: 175,21 mm^2
- Ratio: ischemia zone/ myocard [1]: 0,365±

Compound: NC(=O)CN1CC(c2ccccc2)CC1=O (stereo not drawn) [PhP, 4-phenyl-2-pyrrolidinone-1-acetic acid amide]
- Anti-ischemic effect ([1]; PhP 50 mg/kg compared with Obzidan 0.5 mg/kg): exceeded the one of Obzidan
- area of ischemia zone (result in words) [1, 5]: statistically significantly reduced
- area of the total injury zone (ischemia zone plus necrosis zone) (result in words) [1, 5]: statistically significantly reduced
- area of myocardial necrosis (result in words) ([1]; PhP 50 mg/kg intraperitoneally, not statistically significant): nearly twice reduced
- Area of the injury zone [1]: 182,53 MM^2
- Area of the necrosis zone [1]: 19,21 mm^2
- Ratio: necrosis zone /myocard [1]: 0,039±
- Ratio: necrosis/ ischemia [1]: 0,113±
- Area of the myocardial zone [1]: 492,55 mm^2
- Area of the ischemia zone [1]: 163,33 mm^2
- Ratio: ischemia zone/ myocard [1]: 0,332±
- Cardiac index (rats [2]; [6]): 133.8 ±9.8 % in comparison with source data before PhP administration
- Cardiac output (rats [2]; [6]): 161.8±12.7 % in comparison with source data before PhP administration
- Heart rate (rats [2]; [6]): 115.4±3.1 % in comparison with source data before PhP administration
- Minute cardiac supply (rats [2]; [6]): 110.8±3.2 % in comparison with source data before PhP administration
- inotrop effect (rats [2]; PhP 50 mg/kg): not followed by any negative inotrop effect
- LD50 (acute toxicity (LD50); ip, rats, females, administered intraperitoneally): 522 mg/kg
- LD50 (acute toxicity (LD50); ip, rats, males, administered intraperitoneally): 538 mg/kg
- LD50 (acute toxicity (LD50); po, rats (males and females), administered perorally): 2460 mg/kg
- parameters of the peripheral blood, composition of electrolytes and other biochemical parameters (rats [3]): does not influence
- parameters of the peripheral blood, composition of electrolytes and other biochemical parameters (rabbits): does not influence
- changes of peripheral blood and heart, kidney and liver functions (rats [4]): absence of significant changes
- changes of peripheral blood and heart, kidney and liver functions (dogs): absence of significant changes
